Results: patent US10689354B2, “Aminoazole derivative” (Teijin Pharma Limited, priority 2015, dated 2020)

Assays:
[1] = biological target: T1, androgen receptor (AR-LBD) (Rattus norvegicus, UniProt P15207); experiment: Evaluation of androgen receptor affinity (PolarScreen Androgen Receptor Competitor Assay Kit, Red; fluorescence polarization); details: 22° C. for 5 hours, relative to binding rate of 1 μM DHT, read-out: AR affinity (pEC50) (converted)
T1 construct: 5 μL of 2×AR-LBD/Fluoromone AL Red Complex contained in the kit; purchased Invitrogen
T1 sequence (P15207 651-882 limits assumed): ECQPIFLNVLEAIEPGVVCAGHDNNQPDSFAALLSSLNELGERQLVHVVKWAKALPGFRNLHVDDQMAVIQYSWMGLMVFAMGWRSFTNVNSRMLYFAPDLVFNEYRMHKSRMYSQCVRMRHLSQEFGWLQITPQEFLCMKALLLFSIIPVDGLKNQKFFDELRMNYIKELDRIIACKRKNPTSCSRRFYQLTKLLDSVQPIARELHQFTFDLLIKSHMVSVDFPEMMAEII
Summary of the method: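 Duplicate wells of test compound were mixed with the kit's rat AR-LBD–Fluoromone AL Red tracer complex and left 5 hours at 22 °C before polarization was read. A 4-parameter fit gave pEC50, with binding rate referenced to 1 μM dihydrotestosterone.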

[2] = biological target: T2, human androgen receptor (Homo sapiens, UniProt P10275); experiment: Reporter assay of an androgen receptor responsive sequence (luciferase, transiently transfected HEK293 cells); assay type: cell-based; details: 24 hours incubation, relative to activity of 100 nM DHT, read-out: AR transcriptive activity (pEC50) (converted)
T2 construct: expressed in transfected cells; host or cells: HEK293
T2 sequence (P10275 1-920): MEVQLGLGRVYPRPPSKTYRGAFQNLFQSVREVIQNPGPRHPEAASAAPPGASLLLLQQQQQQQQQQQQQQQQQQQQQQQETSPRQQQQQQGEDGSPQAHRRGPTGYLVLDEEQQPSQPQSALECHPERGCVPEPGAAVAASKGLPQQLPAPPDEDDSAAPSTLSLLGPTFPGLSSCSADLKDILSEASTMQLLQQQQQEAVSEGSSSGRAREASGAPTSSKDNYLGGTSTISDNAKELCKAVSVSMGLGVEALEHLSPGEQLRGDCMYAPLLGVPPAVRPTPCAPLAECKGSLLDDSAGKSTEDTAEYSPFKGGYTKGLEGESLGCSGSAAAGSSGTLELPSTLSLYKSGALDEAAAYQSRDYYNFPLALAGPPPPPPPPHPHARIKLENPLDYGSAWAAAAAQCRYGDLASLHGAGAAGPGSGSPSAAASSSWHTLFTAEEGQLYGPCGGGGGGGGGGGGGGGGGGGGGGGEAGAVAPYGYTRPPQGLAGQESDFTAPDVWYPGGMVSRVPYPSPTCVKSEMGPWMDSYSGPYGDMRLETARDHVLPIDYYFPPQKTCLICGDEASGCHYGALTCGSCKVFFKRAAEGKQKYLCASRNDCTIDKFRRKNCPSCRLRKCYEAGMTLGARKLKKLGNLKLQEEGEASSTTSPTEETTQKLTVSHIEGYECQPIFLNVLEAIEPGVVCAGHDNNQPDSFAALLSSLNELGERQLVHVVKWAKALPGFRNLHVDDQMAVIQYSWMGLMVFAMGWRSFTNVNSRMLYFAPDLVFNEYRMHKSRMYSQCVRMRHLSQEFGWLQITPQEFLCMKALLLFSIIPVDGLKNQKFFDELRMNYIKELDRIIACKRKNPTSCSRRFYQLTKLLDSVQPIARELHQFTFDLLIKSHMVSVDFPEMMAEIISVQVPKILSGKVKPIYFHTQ
Summary of the method: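 Agonism scored as pEC50, fitted by 4-parameter curve against the response to 100 nM DHT, from dual-luciferase readout after 24 h compound treatment. Cells were HEK293 co-transfected (3 h) with human AR expression vector, androgen-responsive firefly reporter and Renilla control, in charcoal-stripped serum.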

| SMILES | EC50 [1] | EC50 [2] |
| --- | --- | --- |
| Cc1oc(N(CCc2ccc(C#N)cc2)Cc2ccc(F)cc2)nc1C(=O)NS(C)(=O)=O [Compound 552, 2-[2-(4-cyanophenyl)ethyl-[(4-fluorophenyl)methyl]amino]-5-methyl-N-methylsulfonyl-oxazole-4-carboxamide] | 79.4 nM | 501 nM |
| Cc1oc(N(CCc2ccc(C#N)cc2)Cc2ccc(OC(F)F)cc2)nc1C(=O)NS(C)(=O)=O [Compound 553, 2-[2-(4-cyanophenyl)ethyl-[[4-(difluoromethoxy)phenyl]methyl]amino]-5-methyl-N-methylsulfonyl-oxazole-4-carboxamide] | 31.6 nM | 316 nM |
| Cc1oc(N(CCc2ccc(C#N)cc2)Cc2ccc(C(F)(F)F)nc2)nc1C(=O)NS(C)(=O)=O [Compound 555, 2-[2-(4-cyanophenyl)ethyl-[[6-(trifluoromethyl)-3-pyridyl]methyl]amino]-5-methyl-N-methylsulfonyl-oxazole-4-carboxamide] | 316 nM | 5010 nM |
| COCCCS(=O)(=O)NC(=O)c1nc(N(CCc2ccc(C#N)cc2)Cc2ccc(F)cc2)oc1C [Compound 556, 2-[2-(4-cyanophenyl)ethyl-[(4-fluorophenyl)methyl]amino]-N-(3-methoxypropylsulfonyl)-5-methyl-oxazole-4-carboxamide] | 100 nM | 1260 nM |
| COCCCS(=O)(=O)NC(=O)c1nc(N(CCc2ccc(C#N)cc2)Cc2ccc(F)cc2Cl)oc1C [Compound 558, 2-[(2-chloro-4-fluoro-phenyl)methyl-[2-(4-cyanophenyl)ethyl]amino]-N-(3-methoxypropylsulfonyl)-5-methyl-oxazole-4-carboxamide] | 63.1 nM | > 10000 nM |
| COCCCS(=O)(=O)NC(=O)c1nc(N(CCc2ccc(OC(F)(F)F)cc2)Cc2nc(C3CC3)no2)oc1C [Compound 563, 2-[(3-cyclopropyl-1,2,4-oxadiazol-5-yl)methyl-[2-[4-(trifluoromethoxy)phenyl]ethyl]amino]-N-(3-methoxypropylsulfonyl)-5-methyl-oxazole-4-carboxamide] | 79.4 nM | 1580 nM |
| COCCOc1ccc(CN(c2ccc(C#N)cc2)c2nc(C(=O)NS(C)(=O)=O)c(C)s2)cc1 [Compound 566, 2-[4-cyano-N-[[4-(2-methoxyethoxy)phenyl]methyl]anilino]-5-methyl-N-methylsulfonyl-thiazole-4-carboxamide] | 200 nM | 1580 nM |
| Cc1sc(N(Cc2ccc(OCc3ccncc3)cc2)c2ccc(C#N)cc2)nc1C(=O)NS(C)(=O)=O [Compound 571, 2-[4-cyano-N-[[4-(4-pyridylmethoxy)phenyl]methyl]anilino]-5-methyl-N-methylsulfonyl-thiazole-4-carboxamide] | 158 nM | > 10000 nM |
| Cc1sc(N(Cc2ccc(OCC3CCOCC3)cc2)c2ccc(C#N)cc2)nc1C(=O)NS(C)(=O)=O [Compound 576, 2-[4-cyano-N-[[4-(tetrahydropyran-4-ylmethoxy)phenyl]methyl]anilino]-5-methyl-N-methylsulfonyl-thiazole-4-carboxamide] | 63.1 nM | 1260 nM |
| Cc1sc(N(Cc2ccc(OCC(F)F)cc2)c2ccc(C#N)cc2)nc1C(=O)NS(C)(=O)=O [Compound 577, 2-[4-cyano-N-[[4-(2,2-difluoroethoxy)phenyl]methyl]anilino]-5-methyl-N-methylsulfonyl-thiazole-4-carboxamide] | 63.1 nM | 501 nM |

More lines, now with the values ahead:

| EC50 [1] | EC50 [2] | SMILES |
| --- | --- | --- |
| 63.1 nM | 251 nM | Cc1oc(N(CCc2ccc(Cl)cc2)Cc2ccc(F)cc2)nc1C(=O)NS(C)(=O)=O [Compound 550, 2-[2-(4-chlorophenyl)ethyl-[(4-fluorophenyl)methyl]amino]-5-methyl-N-methylsulfonyl-oxazole-4-carboxamide] |
| 39.8 nM | 501 nM | Cc1oc(N(CCc2ccc(Cl)cc2)Cc2ccc(C(F)(F)F)nc2)nc1C(=O)NS(C)(=O)=O [Compound 551, 2-[2-(4-chlorophenyl)ethyl-[[6-(trifluoromethyl)-3-pyridyl]methyl]amino]-5-methyl-N-methylsulfonyl-oxazole-4-carboxamide] |
| 39.8 nM | 794 nM | Cc1oc(N(CCc2ccc(C#N)cc2)Cc2ccc(F)cc2Cl)nc1C(=O)NS(C)(=O)=O [Compound 554, 2-[(2-chloro-4-fluoro-phenyl)methyl-[2-(4-cyanophenyl)ethyl]amino]-5-methyl-N-methylsulfonyl-oxazole-4-carboxamide] |
| 39.8 nM | 631 nM | COCCCS(=O)(=O)NC(=O)c1nc(N(CCc2ccc(C#N)cc2)Cc2ccc(OC(F)F)cc2)oc1C [Compound 557, 2-[2-(4-cyanophenyl)ethyl-[[4-(difluoromethoxy)phenyl]methyl]amino]-N-(3-methoxypropylsulfonyl)-5-methyl-oxazole-4-carboxamide] |
| 316 nM | 7940 nM | COCCCS(=O)(=O)NC(=O)c1nc(N(CCc2ccc(C#N)cc2)Cc2ccc(C(F)(F)F)nc2)oc1C [Compound 559, 2-[2-(4-cyanophenyl)ethyl-[[6-(trifluoromethyl)-3-pyridyl]methyl]amino]-N-(3-methoxypropylsulfonyl)-5-methyl-oxazole-4-carboxamide] |
| 50.1 nM | 1000 nM | Cc1oc(N(CCc2ccc(OC(F)(F)F)cc2)Cc2nc(C3CC3)no2)nc1C(=O)NS(C)(=O)=O [Compound 560, 2-[(3-cyclopropyl-1,2,4-oxadiazol-5-yl)methyl-[2-[4-(trifluoromethoxy)phenyl]ethyl]amino]-5-methyl-N-methylsulfonyl-oxazole-4-carboxamide] |
| 39.8 nM | 3160 nM | Cc1oc(N(CCc2ccc(OC(F)(F)F)cc2)Cc2ccc(Cl)cn2)nc1C(=O)NS(C)(=O)=O [Compound 561, 2-[(5-chloro-2-pyridyl)methyl-[2-[4-(trifluoromethoxy)phenyl]ethyl]amino]-5-methyl-N-methylsulfonyl-oxazole-4-carboxamide] |
| 39.8 nM | 794 nM | Cc1oc(N(CCc2ccc(OC(F)(F)F)cc2)Cc2ccc(C(F)(F)F)nc2)nc1C(=O)NS(C)(=O)=O [Compound 562, 5-methyl-N-methylsulfonyl-2-[2-[4-(trifluoromethoxy)phenyl]ethyl-[[6-(trifluoromethyl)-3-pyridyl]methyl]amino]oxazole-4-carboxamide] |
| 158 nM | > 10000 nM | COCCCS(=O)(=O)NC(=O)c1nc(N(CCc2ccc(OC(F)(F)F)cc2)Cc2ccc(Cl)cn2)oc1C [Compound 564, 2-[(5-chloro-2-pyridyl)methyl-[2-[4-(trifluoromethoxy)phenyl]ethyl]amino]-N-(3-methoxypropylsulfonyl)-5-methyl-oxazole-4-carboxamide] |
| 63.1 nM | 2000 nM | COCCCS(=O)(=O)NC(=O)c1nc(N(CCc2ccc(OC(F)(F)F)cc2)Cc2ccc(C(F)(F)F)nc2)oc1C [Compound 565, N-(3-methoxypropylsulfonyl)-5-methyl-2-[2-[4-(trifluoromethoxy)phenyl]ethyl-[[6-(trifluoromethyl)-3-pyridyl]methyl]amino]oxazole-4-carboxamide] |
| 100 nM | > 10000 nM | Cc1sc(N(Cc2ccc(OCc3cccnc3)cc2)c2ccc(C#N)cc2)nc1C(=O)NS(C)(=O)=O [Compound 567, 2-[4-cyano-N-[[4-(3-pyridylmethoxy)phenyl]methyl]anilino]-5-methyl-N-methylsulfonyl-thiazole-4-carboxamide] |
| 158 nM | 794 nM | Cc1sc(N(Cc2ccc(OCc3ccccn3)cc2)c2ccc(C#N)cc2)nc1C(=O)NS(C)(=O)=O [Compound 568, 2-[4-cyano-N-[[4-(2-pyridylmethoxy)phenyl]methyl]anilino]-5-methyl-N-methylsulfonyl-thiazole-4-carboxamide] |
